Results published in patent US7282507B2, “Indole derivatives as selective androgen receptor modulators (SARMS)” (Janssen Pharmaceutica N.V., priority 2004, dated 2007).
“And” between values parts separate entries of the source, which are not always exact repeats. Identical values can stand only once. Like-named read-outs stand apart in the source and are kept apart here.

What was measured:
[1] = molecular target: T1, androgen receptor (AdEasy+rAR, L929 cells) (Rattus norvegicus, UniProt P15207); test: L929 Androgen Receptor Functional Assay, Adenovirus Transduction; assay type: cell-based; conditions: for inhibition at 3 µM: L929, antagonist testing with R1881, 3000 nM; for IC50: antagonist testing with R1881; for % Inhibition, L929 androgen receptor functional assay: antagonist testing with R1881, 3000 nM
T1 construct: expressed in transfected cells; host or cells: L929 cells transduced with adenovirus AdEasy+rAR
T1 sequence (P15207 1-902): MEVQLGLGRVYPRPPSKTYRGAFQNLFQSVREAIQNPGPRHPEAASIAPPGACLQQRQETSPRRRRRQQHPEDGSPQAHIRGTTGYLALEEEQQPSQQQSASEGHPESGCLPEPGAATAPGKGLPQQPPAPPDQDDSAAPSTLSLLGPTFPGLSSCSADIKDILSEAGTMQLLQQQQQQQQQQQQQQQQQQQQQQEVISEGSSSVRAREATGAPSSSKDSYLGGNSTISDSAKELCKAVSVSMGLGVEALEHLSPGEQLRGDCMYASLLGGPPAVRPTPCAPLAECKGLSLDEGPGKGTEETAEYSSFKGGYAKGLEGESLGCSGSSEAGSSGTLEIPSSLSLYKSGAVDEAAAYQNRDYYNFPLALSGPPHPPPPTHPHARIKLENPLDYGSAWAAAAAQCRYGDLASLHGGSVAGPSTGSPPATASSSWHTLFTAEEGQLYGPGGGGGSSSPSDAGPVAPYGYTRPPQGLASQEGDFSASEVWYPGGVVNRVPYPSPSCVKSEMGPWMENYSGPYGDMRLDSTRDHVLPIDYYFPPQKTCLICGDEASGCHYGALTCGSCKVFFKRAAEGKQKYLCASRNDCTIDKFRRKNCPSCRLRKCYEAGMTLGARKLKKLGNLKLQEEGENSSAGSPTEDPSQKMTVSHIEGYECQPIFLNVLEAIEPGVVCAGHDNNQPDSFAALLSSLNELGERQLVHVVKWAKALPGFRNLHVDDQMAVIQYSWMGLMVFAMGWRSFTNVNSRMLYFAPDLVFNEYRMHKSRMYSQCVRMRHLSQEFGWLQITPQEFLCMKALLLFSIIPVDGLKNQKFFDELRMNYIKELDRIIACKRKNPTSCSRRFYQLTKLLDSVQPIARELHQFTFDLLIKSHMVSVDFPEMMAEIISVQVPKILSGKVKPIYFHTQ
Outline: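 L929 cells in phenol red-free, charcoal-stripped serum medium transduced with AdEasy+rAR (moi 1:500) and exposed 48 h at 37 °C to compound alone (agonist mode) or with R1881 (antagonist mode; 2.5 nM as the 2.5× dilution).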

[2] = molecular target: T2, androgen receptor (AdEasy+rAR, COS-7 cells) (Rattus norvegicus, UniProt P15207); test: COS-7 Whole-Cell Androgen Receptor Binding Assay, Adenovirus Transduction; conditions: for inhibition at 3 µM / % Inhibition, COS Binding: concentration of 3000 nM
T2 construct: expressed in transfected cells; host or cells: COS-7 cells transduced with adenovirus AdEasy+rAR
T2 sequence (P15207 1-902): T1 sequence (P15207 1-902)
Experimental: COS-7 cells were plated in 96-well plates at 20,000 cells per well, in a solution of DMEM/F12 (GIBCO) containing 10% (v/v) charcoal-treated fetal bovine serum (Hyclone) and lacking phenol red. The cells were then incubated overnight at 37° C. in 5% (v/v) humidified CO2.
Test compound solutions were prepared by diluting the test compound in 100% (v/v) DMSO, if necessary.
Next, 1 mL of DMEM/F12 lacking phenol red was pipetted into each of the wells of a 2-mL 96-well assay block. […] The wells were carefully mixed by pipette.
In a 15 mL or 50 mL sterile centrifuge tube, a dilution in DMEM/F12 of the adenovirus AdEasy+rAR at a moi of 1:50 per well was prepared.
The medium was removed from the 96-well plates by inversion and the plates dried very briefly, inverted, on a sterile towel. As soon as possible after medium removal, 40 μL of the diluted test compound was added to each well, in duplicate. […] The plates were then incubated for 48 hours at 37° C. in 5% (v/v) humidified CO2.
The medium was removed from the above incubated plates by inversion and dried. Each well was then washed with 0.35 mL of 1× PBS. The PBS was then removed from the plates by inversion and the plates dried.
To each well was then added 50 μL of 0.5% (v/v) Triton X-100 (Sigma) in 1× PBS and the plates placed on a rotary shaker for 5 min. The contents of each well were then transferred to an OptiPlate-96 (Packard) scintillation plate. To each well was then added 0.2 mL of Microscint-20 (Packard) and the wells counted on a TopCount (Packard).
Percent inhibition was determined by testing dilutions of the test compound (usually duplicates of 10 μM) in the binding assay. Counts per well were measured and percents of inhibition determined. […] Counts per well were measured and IC50s determined by linear regression.

[3] = test system: testosterone-enhanced ventral prostate and seminal vesicle weights; test: Ventral Prostate and Seminal Vesicle Weight in vivo Assay; design: species or system rat; conditions: immature castrated male Sprague Dawley rats, once daily for five days, usually orally 40 mg/kg, with testosterone propionate 2 mg/kg s.c. Note: key: 'active' if the non weight adjusted prostate weight was ≦40 mg or the % Inhibition prostate weight, body weight adjusted was ≧40% @ 2 mg/day dosage; ID50's, if determined, of ≦15 mg/day also indicated an 'active' compound; listed herein as 'inactive' as they did not meet the specified criteria defined above.
Outline: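 Immature castrated male Sprague Dawley rats (~50 g) were dosed once daily for five days with compound, usually orally at 40 mg/kg in cyclodextrin or methylcellulose vehicle. Testosterone propionate was co-dosed subcutaneously at 2 mg/kg. On day six, ventral prostate and seminal vesicle wet weights were measured; activity was judged on prostate weight or body-weight-adjusted % inhibition.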

[4] = read-out: IC50 (nM), COS Binding

CC(O)(CS(C)(=O)=O)c1cc2cc(Cl)c(C(F)(F)F)cc2n1S(C)(=O)=O (centres unmarked) [Compound 137]
inhibition at 3 µM [1]: 77%
% Activity, L929 androgen receptor functional assay ([1]; agonist testing, 3000 nM): 0%
IC50 ([2]; IC50 (nM), COS Binding): > 1500 nM
inhibition at 3 µM [2]: 73%
active / inactive: inhibition of testosterone-enhanced prostate weight [3]: inactive

CCS(=O)(=O)CC(C)(O)c1[nH]c2cc(C(F)(F)F)c(C#N)cc2c1C (single isomer, unassigned) [Compound 252]
% Activity, L929 androgen receptor functional assay ([1]; agonist testing, 3000 nM, 3 µM): 1%
IC50 [1]: 3100 nM
% Inhibition, L929 androgen receptor functional assay ([1]; 3 µM): 65%
% Inhibition, COS Binding ([2]; 3 µM): 68%
IC50 [2, 4]: > 3000 nM
active / inactive: inhibition of testosterone-enhanced prostate weight [3]: active

CCSCC(C)(O)c1[nH]c2cc(C(F)(F)F)c(C#N)cc2c1C (centres unmarked) [Compound 219]
inhibition at 3 µM [1]: 103%
% Activity, L929 androgen receptor functional assay ([1]; agonist testing, 3000 nM): −3%
IC50 [2, 4]: 6.2 nM
active / inactive: inhibition of testosterone-enhanced prostate weight [3]: inactive

CC(O)(CSCC(F)(F)F)c1cc2cc([N+](=O)[O-])c(C(F)(F)F)cc2[nH]1 (single isomer, unassigned) [Compound 202]
% Activity, L929 androgen receptor functional assay ([1]; agonist testing, 3000 nM, 3 µM): 1%
% Inhibition, COS Binding ([2]; 3 µM): 50%
active / inactive: inhibition of testosterone-enhanced prostate weight [3]: active

CCCS(=O)(=O)CC(C)(O)c1cc2cc([N+](=O)[O-])c(C(F)(F)F)cc2[nH]1 (centres unmarked) [Compound 177]
inhibition at 3 µM [1]: 89%
% Activity, L929 androgen receptor functional assay ([1]; agonist testing, 3000 nM): 2%
inhibition at 3 µM [2]: 90%
IC50 [2, 4]: 88 nM
active / inactive: inhibition of testosterone-enhanced prostate weight [3]: active

CCSCC(C)(O)c1cc2cc(C#N)c(C(F)(F)F)cc2[nH]1 (single isomer, unassigned) [Compound 217, 2-(2-Ethylsulfanyl-1-hydroxy-1-methyl-ethyl)-6-trifluoromethyl-1H-indole-5-carbonitrile]
inhibition at 3 µM [1]: 87%
EC50 ([1]; agonist testing): > 8000 nM
% Activity, L929 androgen receptor functional assay ([1]; agonist testing, 3000 nM): 5%
% Activity, L929 androgen receptor functional assay ([1]; agonist testing, @ 8000 nM): 0 @ 8000 nM %
IC50 [1]: 969 nM and 415 nM and 810 nM
% Inhibition, L929 androgen receptor functional assay ([1]; 3 µM): 80%
% Inhibition, COS Binding ([2]; 3 µM): 38% and 61% and 69%
active / inactive: inhibition of testosterone-enhanced prostate weight [3]: active

CCSCC(C)(O)c1cc2cc(F)c(C(F)(F)F)cc2[nH]1 (centres unmarked) [Compound 159]
% Activity, L929 androgen receptor functional assay ([1]; agonist testing, 3000 nM): 2%
IC50 [2, 4]: 240 nM
active / inactive: inhibition of testosterone-enhanced prostate weight [3]: active

CC(O)(CSCC(F)(F)F)c1cc2cc(F)c(C(F)(F)F)cc2[nH]1 (centres unmarked) [Compound 189]
inhibition at 3 µM [1]: 85%
% Activity, L929 androgen receptor functional assay ([1]; agonist testing, 3000 nM): 3%
inhibition at 3 µM [2]: 100%
IC50 [2, 4]: 280 nM
active / inactive: inhibition of testosterone-enhanced prostate weight [3]: inactive

C[S+]([O-])CCC(C)(O)c1cc2cc([N+](=O)[O-])c(C(F)(F)F)cc2[nH]1 (mixture of isomers) [Compound 50]
% Activity, L929 androgen receptor functional assay ([1]; agonist testing, 3000 nM): 2%
% Inhibition, COS Binding [2]: 7%
active / inactive: inhibition of testosterone-enhanced prostate weight [3]: inactive

CSCC(C)(O)c1cc2cc([N+](=O)[O-])c(C(F)(F)F)cc2[nH]1 (racemic) [Compound 139]
% Activity, L929 androgen receptor functional assay ([1]; agonist testing, 3000 nM, 3 µM): 0% and 1%
inhibition at 3 µM [2]: 94%
% Inhibition, COS Binding ([2]; 3 µM): 97%
IC50 [2, 4]: 63 nM and 252 nM
active / inactive: inhibition of testosterone-enhanced prostate weight [3]: active

CCC(O)(CSCC(F)(F)F)c1cc2cc(Cl)c(C(F)(F)F)cc2[nH]1 (centres unmarked) [Compound 192]
inhibition at 3 µM [1]: 89%
% Activity, L929 androgen receptor functional assay ([1]; agonist testing, 3000 nM): 8%
inhibition at 3 µM [2]: 86%
IC50 [2, 4]: 82 nM
active / inactive: inhibition of testosterone-enhanced prostate weight [3]: active

CC(O)(CSCC(F)(F)F)c1cc2cc(Cl)c(C(F)(F)F)cc2[nH]1 (centres unmarked) [Compound 190]
inhibition at 3 µM [1]: 97%
% Activity, L929 androgen receptor functional assay ([1]; agonist testing, 3000 nM): 1%
inhibition at 3 µM [2]: 100%
IC50 [2, 4]: 292 nM
active / inactive: inhibition of testosterone-enhanced prostate weight [3]: active

CC(O)(CSCc1cccs1)c1cc2cc([N+](=O)[O-])c(C(F)(F)F)cc2[nH]1 (centres unmarked) [Compound 197]
inhibition at 3 µM [1]: -26%
% Activity, L929 androgen receptor functional assay ([1]; agonist testing, 3000 nM): 2%
inhibition at 3 µM [2]: 86%
IC50 [2, 4]: > 3000 nM
active / inactive: inhibition of testosterone-enhanced prostate weight [3]: inactive

CCC(O)(CSCC(F)(F)F)c1cc2cc(F)c(C(F)(F)F)cc2[nH]1 (centres unmarked) [Compound 194]
inhibition at 3 µM [1]: 40%
% Activity, L929 androgen receptor functional assay ([1]; agonist testing, 3000 nM): 2%
inhibition at 3 µM [2]: 80%
IC50 [2, 4]: 320 nM
active / inactive: inhibition of testosterone-enhanced prostate weight [3]: inactive

CCC(O)(CS(=O)(=O)CC(F)(F)F)c1cc2cc([N+](=O)[O-])c(C(F)(F)F)cc2[nH]1 (centres unmarked) [Compound 191]
inhibition at 3 µM [1]: -6%
% Activity, L929 androgen receptor functional assay ([1]; agonist testing, 3000 nM): 2%
inhibition at 3 µM [2]: 65%
IC50 [2, 4]: 840 nM
active / inactive: inhibition of testosterone-enhanced prostate weight [3]: active

CCS(=O)(=O)CC(C)(O)c1[nH]c2cc(C(F)(F)F)c(C#N)cc2c1C (single isomer, unassigned) [Compound 251, 2-(2-Ethanesulfonyl-1-hydroxy-1-methyl-ethyl)-3-methyl-6-trifluoromethyl-1H-indole-5-carbonitrile]
% Activity, L929 androgen receptor functional assay ([1]; agonist testing, 3000 nM, 3 µM): −1%
IC50 [1]: 200 nM
inhibition at 3 µM [2]: 85%
IC50 [2, 4]: 220 nM
active / inactive: inhibition of testosterone-enhanced prostate weight [3]: active

CCC(O)(CSCC(F)(F)F)c1cc2cc([N+](=O)[O-])c(C(F)(F)F)cc2[nH]1 (centres unmarked) [Compound 185]
inhibition at 3 µM [1]: 97%
% Activity, L929 androgen receptor functional assay ([1]; agonist testing, 3000 nM): 2%
inhibition at 3 µM [2]: 92%
IC50 [2, 4]: 61 nM
active / inactive: inhibition of testosterone-enhanced prostate weight [3]: active

CC(O)(CSCC(F)(F)F)c1cc2cc([N+](=O)[O-])c(C(F)(F)F)cc2[nH]1 (centres unmarked) [Compound 201]
% Activity, L929 androgen receptor functional assay ([1]; agonist testing, 3000 nM, 3 µM): 2%
% Inhibition, L929 androgen receptor functional assay ([1]; 3 µM): 83%
% Inhibition, COS Binding ([2]; 3 µM): 86%
IC50 [2, 4]: 340 nM
active / inactive: inhibition of testosterone-enhanced prostate weight [3]: inactive

CCSCC(C)(O)c1cc2cc([N+](=O)[O-])c(C(F)(F)F)cc2n1C (single isomer, unassigned) [Compound 231]
% Activity, L929 androgen receptor functional assay ([1]; agonist testing, 3000 nM, 3 µM): 0% and −1%
IC50 [1]: 3180 nM
inhibition at 3 µM [2]: 73%
% Inhibition, COS Binding ([2]; 3 µM): 78%
IC50 [2, 4]: 665 nM and > 3000 nM
active / inactive: inhibition of testosterone-enhanced prostate weight [3]: active

CCSCC(C)(O)c1cc2cc(Br)c(C(F)(F)F)cc2[nH]1 (centres unmarked) [Compound 220]
inhibition at 3 µM [1]: 103%
% Activity, L929 androgen receptor functional assay ([1]; agonist testing, 3000 nM): −3%
IC50 [2, 4]: 34 nM
active / inactive: inhibition of testosterone-enhanced prostate weight [3]: inactive

CCCCSCC(C)(O)c1cc2cc([N+](=O)[O-])c(C(F)(F)F)cc2[nH]1 (centres unmarked) [Compound 200]
inhibition at 3 µM [1]: 96%
% Activity, L929 androgen receptor functional assay ([1]; agonist testing, 3000 nM): 1%
inhibition at 3 µM [2]: 97%
active / inactive: inhibition of testosterone-enhanced prostate weight [3]: inactive
